The source of these data is patent US20260315464A1, “COMPOSITIONS, METHODS, AND SYSTEMS FOR MODULATING SPLICING OF MSH3” (REVIR THERAPEUTICS, INC., priority 2023, published 2026).

In this experiment the test system is MSH3. Put plainly: QPCR assay for levels of MSH3 upon compound treatment in HEK293T or AD293 cells (fold-change of MSH3 transcript, EC50 of MSH3 downregulation; total MSH3 exons 13/14, exons 20/21; Table 8). It counts as cell-based. The note with it: for mrna remaining at 1 µM / mrna remaining at 10 µM: Homo sapiens, fold-change of the MSH3 transcript, normalized to GAPDH; for mrna remaining at 1 µM: 1 μM compound; for mrna remaining at 10 µM: 10 μM compound. The procedure, abridged: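 MSH3 mRNA was quantified by TaqMan qPCR covering exons 13/14, exons 20/21, exon 13/PE14A and exon 20/PE21A, with GAPDH as reference. Cells used were HEK293T or AD293, treated with compound at 1 μM and […].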

As for `Cc1nn(C)nc1-c1cnc2c(c1)C(=O)N(c1ccc(S[C@H]3C[C@]4(C)CC[C@](C)(C3)N4)nn1)C2` [Compound 611, 3-(2,5-dimethyl-2H-1,2,3-triazol-4-yl)-6-(6-(((1R,3s,5S)-1,5-dimethyl-8-azabicyclo[3.2.1]octan-3-yl)thio)pyridazin-3-yl)-6,7-dihydro-5H-pyrrolo[3,4-b]pyridin-5-one], the mrna remaining at 1 µM was 90% and the mrna remaining at 10 µM was 79%.
Taken in the same sequence, the figures for `Cc1nn(C)nc1-c1cc(F)c2c(c1)C(=O)N(c1ccc(N3CC[C@@H](NC(C)(C)C)C3)nn1)C2` [Compound 648, (R)-2-(6-(3-(tert-butylamino)pyrrolidin-1-yl)pyridazin-3-yl)-6-(2,5-dimethyl-2H-1,2,3-triazol-4-yl)-4-fluoroisoindolin-1-one] were 113% and 87%.
In the case of `Cn1cc(-c2cc3c(cn2)CN(c2ccc(O[C@H]4C[C@]5(C)CC[C@](C)(C4)N5)nn2)C3=O)c(C(F)(F)F)n1` [Compound 74, 2-(6-(((1R,3s,5S)-1,5-dimethyl-8-azabicyclo[3.2.1]octan-3-yl)oxy)pyridazin-3-yl)-6-(1-methyl-3-(trifluoromethyl)-1H-pyrazol-4-yl)-2,3-dihydro-1H-pyrrolo[3,4-c]pyridin-1-one], the mrna remaining at 1 µM was 96% and the mrna remaining at 10 µM was 33%.
On the same counts, the results for `Cc1nc(C)c(-c2cnc3c(c2)C(=O)N(c2ccc(O[C@@H]4C[C@]5(C)CC[C@](C)(C4)N5)nn2)C3)s1` [Compound 194, 6-(6-(((1R,3r,5S)-1,5-dimethyl-8-azabicyclo[3.2.1]octan-3-yl)oxy)pyridazin-3-yl)-3-(2,4-dimethylthiazol-5-yl)-6,7-dihydro-5H-pyrrolo[3,4-b]pyridin-5-one] are 224% and 92%.
On the same counts, the results for `Cc1nn(C)nc1-c1cc(F)c2c(c1)C(=O)N(c1ccc(N3CCN[C@@H](C(C)(C)C)C3)nn1)C2` [Compound 298, (S)-2-(6-(3-(tert-butyl)piperazin-1-yl)pyridazin-3-yl)-6-(2,5-dimethyl-2H-1,2,3-triazol-4-yl)-4-fluoroisoindolin-1-one] are 89% and 29%.
On the same counts, the results for `Cc1nn(C)nc1-c1cc(F)c2c(c1)C(=O)N(c1ccc(N3CCN4CCC[C@H]4C3)nn1)C2` [Compound 665, (S)-6-(2,5-dimethyl-2H-1,2,3-triazol-4-yl)-4-fluoro-2-(6-(hexahydropyrrolo[1,2-a]pyrazin-2(1H)-yl)pyridazin-3-yl)isoindolin-1-one] are 92% and 32%.
With `Cc1nn(C)nc1-c1cnc2c(n1)C(=O)N(c1ccc(N(C)[C@H]3C[C@]4(C)CC[C@](C)(C3)N4)nn1)C2` [Compound 590, 3-(2,5-dimethyl-2H-1,2,3-triazol-4-yl)-6-(6-(((1R,3s,5S)-1,5-dimethyl-8-azabicyclo[3.2.1]octan-3-yl)(methyl)amino)pyridazin-3-yl)-6,7-dihydro-5H-pyrrolo[3,4-b]pyrazin-5-one], the mrna remaining at 1 µM amounted to 24% and the mrna remaining at 10 µM was 9%. Also, under “EC50 of MSH3 downregulation, XtalPi”, the EC50 – broadly, the midpoint of the concentration-response curve – was 569 nM.
With `CN(C)C1CCN(c2ccc(N3Cc4c(F)cc(-c5nn(C)nc5Cl)cc4C3=O)nn2)CC1` [Compound 667, 6-(5-chloro-2-methyl-2H-1,2,3-triazol-4-yl)-2-(6-(4-(dimethylamino)piperidin-1-yl)pyridazin-3-yl)-4-fluoroisoindolin-1-one], the mrna remaining at 1 µM was determined as 92% and the mrna remaining at 10 µM came out at 71%.
Regarding `Cn1ncc(-c2cnc3c(c2)C(=O)N(c2ccc(OC4CC(C)(C)NC5(CCC5)C4)nn2)C3)n1` (centres unmarked) [Compound 601, 6-(6-((6,6-dimethyl-5-azaspiro[3.5]nonan-8-yl)oxy)pyridazin-3-yl)-3-(2-methyl-2H-1,2,3-triazol-4-yl)-6,7-dihydro-5H-pyrrolo[3,4-b]pyridin-5-one], the mrna remaining at 1 µM was found to be 117% and the mrna remaining at 10 µM turned out to be 82%.
For `CC(C)[C@H]1CN(c2ccc(N3Cc4c(F)cc(-c5cnn(C)n5)cc4C3=O)nn2)CCN1` [Compound 629, (S)-4-fluoro-2-(6-(3-isopropylpiperazin-1-yl)pyridazin-3-yl)-6-(2-methyl-2H-1,2,3-triazol-4-yl)isoindolin-1-one], the mrna remaining at 1 µM is 74% and the mrna remaining at 10 µM is 62%.
Turning to `Cc1nn(C)nc1-c1cc(F)c2c(c1)C(=O)N(c1ccc(N3CCC4(CCNC4)C3)nn1)C2` (centres unmarked) [Compound 646, 2-(6-(2,7-diazaspiro[4.4]nonan-2-yl)pyridazin-3-yl)-6-(2,5-dimethyl-2H-1,2,3-triazol-4-yl)-4-fluoroisoindolin-1-one], the mrna remaining at 1 µM is 115% and the mrna remaining at 10 µM came out at 76%.
On the same counts, the results for `Cc1nn(C)nc1-c1cc(F)c2c(c1)C(=O)N(c1ccc(N3C[C@@H](C)N[C@@H](C)C3)nn1)C2` [Compound 641, 6-(2,5-dimethyl-2H-1,2,3-triazol-4-yl)-2-(6-((3S,5R)-3,5-dimethylpiperazin-1-yl)pyridazin-3-yl)-4-fluoroisoindolin-1-one] are 96% and 34%.
On to `Cn1nc(Cl)c(-c2cc(F)c3c(c2)C(=O)N(c2ccc(N4CC5(CCNC5)C4)nn2)C3)n1` [Compound 644, 2-(6-(2,6-diazaspiro[3.4]octan-2-yl)pyridazin-3-yl)-6-(5-chloro-2-methyl-2H-1,2,3-triazol-4-yl)-4-fluoroisoindolin-1-one], for which the mrna remaining at 1 µM stood at 87% and the mrna remaining at 10 µM turned out to be 97%.
With `CN(c1ccc(N2Cc3cnc(-c4cn(C)nc4C(F)(F)F)cc3C2=O)nn1)[C@H]1C[C@]2(C)CC[C@](C)(C1)N2` [Compound 61, 2-(6-(((1R,3s,5S)-1,5-dimethyl-8-azabicyclo[3.2.1]octan-3-yl)(methyl)amino)pyridazin-3-yl)-6-(1-methyl-3-(trifluoromethyl)-1H-pyrazol-4-yl)-2,3-dihydro-1H-pyrrolo[3,4-c]pyridin-1-one], the mrna remaining at 1 µM came to 44% and the mrna remaining at 10 µM amounted to 18%.
Consider `Cc1nn(C)nc1-c1cc(F)c2c(c1)C(=O)N(c1ccc(N3CCC(C)(C)NC(C)(C)C3)nn1)C2` [Compound 657, 6-(2,5-dimethyl-2H-1,2,3-triazol-4-yl)-4-fluoro-2-(6-(3,3,5,5-tetramethyl-1,4-diazepan-1-yl)pyridazin-3-yl)isoindolin-1-one], for which the mrna remaining at 1 µM was found to be 75% and the mrna remaining at 10 µM amounted to 26%.
For the molecule `Cn1cc(-c2cnc3c(c2)C(=O)N(c2ccc(OC4CC(C)(C)NC(C)(C)C4)nn2)C3)c(F)n1` [Compound 190, 3-(3-fluoro-1-methyl-1H-pyrazol-4-yl)-6-(6-((2,2,6,6-tetramethylpiperidin-4-yl)oxy)pyridazin-3-yl)-6,7-dihydro-5H-pyrrolo[3,4-b]pyridin-5-one], the mrna remaining at 1 µM was 106% and the mrna remaining at 10 µM worked out at 45%.
`COc1cc(-c2nn(C)nc2C)cc2c1CN(c1ccc(N(C)C3CC(C)(C)NC(C)(C)C3)nn1)C2=O` [Compound 683, 6-(2,5-dimethyl-2H-1,2,3-triazol-4-yl)-4-methoxy-2-(6-(methyl(2,2,6,6-tetramethylpiperidin-4-yl)amino)pyridazin-3-yl)isoindolin-1-one]: the mrna remaining at 1 µM was 138% and the mrna remaining at 10 µM amounted to 26%.
